Reference: patent publication US8916565B2, “Pyrrolopyrazine-spirocyclic piperidine amides as modulators of ion channels” (priority 2011, dated 2014)

The compounds below were run against human NaV subtype, like NaV 1.7 (Homo sapiens, UniProt Q15858) (assay: E-VIPR optical membrane potential assay with electrical stimulation). Details: active against one or more sodium channels; Table 3 does not name the assay or NaV subtype; read-out: Binned Activity Data (IC50).
Type: cell-based
From the text: Assays for Detecting and Measuring NaV Inhibition Properties of Compound E-VIPR Optical Membrane Potential Assay Method with Electrical Stimulation
Sodium channels are voltage-dependent proteins that can be activated by inducing membrane voltage changes by applying electric fields. The electrical stimulation instrument and methods of use are described in Ion Channel Assay Methods PCT/US01/21652, herein incorporated by reference and are referred to as E-VIPR. The instrument comprises a microtiter plate handler, an optical system for exciting the coumarin dye while simultaneously recording the coumarin and oxonol emissions, a waveform generator, a current- or voltage-controlled amplifier, and a device for inserting electrodes in well. Under integrated computer control, this instrument passes user-programmed electrical stimulus protocols to cells within the wells of the microtiter plate.
24 hours before the assay on E-VIPR, HEK cells expressing human NaV subtype, like NaV 1.7, are seeded in 384-well poly-lysine coated plates at 15,000-20,000 cells per well. Other subtypes are performed in an analogous mode in a cell line expressing the NaV of interest. HEK cells are grown in media (exact composition is specific to each cell type and NaV subtype) supplemented with 10% FBS (Fetal Bovine Serum, qualified; GibcoBRL #16140-071) and 1% Pen-Strep (Penicillin-Streptomycin; GibcoBRL #15140-122). Cells are grown in vented cap flasks, in 90% humidity and 10% CO2, to 100% confluence. They are usually split by trypsinization 1:10 or 1:20, depending on scheduling needs, and grown for 2-3 days before the next split.
Bath 1 buffer. Glucose 10 mM (1.8 g/L), Magnesium Chloride (Anhydrous), 1 mM (0.095 g/L), Calcium Chloride, 2 mM (0.222 g/L), HEPES 10 mM (2.38 g/L), Potassium Chloride, 4.5 mM (0.335 g/L), Sodium Chloride 160 mM (9.35 g/L).
Hexyl Dye Solution: Bath 1 Buffer+0.5% β-cyclodextrin (make this prior to use, Sigma #C4767), 8 μM CC2-DMPE+2.5 μM DiSBAC6(3). To make the solution Add volume of 10% Pluronic F127 stock equal to volumes of CC2-DMPE+DiSBAC6(3). The order of preparation is first mix Pluronic and CC2-DMPE, then add DiSBAC6(3) while vortexing, then add Bath 1+β-Cyclodextrin.
1) Pre-spot compounds (in neat DMSO) into compound plates. Vehicle control (neat DMSO), the positive control (20 mM DMSO stock tetracaine, 125 μM final in assay) and test compounds are added to each well at 160× desired final concentration in neat DMSO. Final compound plate volume will be 80 μL (80-fold intermediate dilution from 1 μL DMSO spot; 160-fold final dilution after transfer to cell plate). Final DMSO concentration for all wells in assay is 0.625%.
2) Prepare Hexyl Dye Solution.
3) Prepare cell plates. On the day of the assay, medium is aspirated and cells are washed three times with 100 μL of Bath 1 Solution, maintaining 25 μL residual volume in each well.
4) Dispense 25 μL per well of Hexyl Dye Solution into cell plates. Incubate for 20-35 minutes at room temp or ambient conditions.
5) Dispense 80 μL per well of Bath 1 into compound plates. Acid Yellow-17 (1 mM) is added and Potassium Chloride can be altered from 4.5 to 20 mM depending on the NaV subtype and assay sensitivity.
6) Wash cell plates three times with 100 μL per well of Bath1, leaving 25 μL of residual volume. Then transfer 25 uL per well from Compound Plates to Cell Plates. Incubate for 20-35 minutes at room temp/ambient condition
7) Read Plate on E-VIPR. Use the current-controlled amplifier to deliver stimulation wave pulses for typically 9 seconds and a scan rate of 400 Hz. A pre-stimulus recording is performed for 0.5 seconds to obtain the un-stimulated intensities baseline. The stimulatory waveform is applied for 9 seconds followed by 0.5 seconds of post-stimulation recording to examine the relaxation to the resting state.

Sequence of human NaV subtype, like NaV 1.7 (Q15858 whole entry): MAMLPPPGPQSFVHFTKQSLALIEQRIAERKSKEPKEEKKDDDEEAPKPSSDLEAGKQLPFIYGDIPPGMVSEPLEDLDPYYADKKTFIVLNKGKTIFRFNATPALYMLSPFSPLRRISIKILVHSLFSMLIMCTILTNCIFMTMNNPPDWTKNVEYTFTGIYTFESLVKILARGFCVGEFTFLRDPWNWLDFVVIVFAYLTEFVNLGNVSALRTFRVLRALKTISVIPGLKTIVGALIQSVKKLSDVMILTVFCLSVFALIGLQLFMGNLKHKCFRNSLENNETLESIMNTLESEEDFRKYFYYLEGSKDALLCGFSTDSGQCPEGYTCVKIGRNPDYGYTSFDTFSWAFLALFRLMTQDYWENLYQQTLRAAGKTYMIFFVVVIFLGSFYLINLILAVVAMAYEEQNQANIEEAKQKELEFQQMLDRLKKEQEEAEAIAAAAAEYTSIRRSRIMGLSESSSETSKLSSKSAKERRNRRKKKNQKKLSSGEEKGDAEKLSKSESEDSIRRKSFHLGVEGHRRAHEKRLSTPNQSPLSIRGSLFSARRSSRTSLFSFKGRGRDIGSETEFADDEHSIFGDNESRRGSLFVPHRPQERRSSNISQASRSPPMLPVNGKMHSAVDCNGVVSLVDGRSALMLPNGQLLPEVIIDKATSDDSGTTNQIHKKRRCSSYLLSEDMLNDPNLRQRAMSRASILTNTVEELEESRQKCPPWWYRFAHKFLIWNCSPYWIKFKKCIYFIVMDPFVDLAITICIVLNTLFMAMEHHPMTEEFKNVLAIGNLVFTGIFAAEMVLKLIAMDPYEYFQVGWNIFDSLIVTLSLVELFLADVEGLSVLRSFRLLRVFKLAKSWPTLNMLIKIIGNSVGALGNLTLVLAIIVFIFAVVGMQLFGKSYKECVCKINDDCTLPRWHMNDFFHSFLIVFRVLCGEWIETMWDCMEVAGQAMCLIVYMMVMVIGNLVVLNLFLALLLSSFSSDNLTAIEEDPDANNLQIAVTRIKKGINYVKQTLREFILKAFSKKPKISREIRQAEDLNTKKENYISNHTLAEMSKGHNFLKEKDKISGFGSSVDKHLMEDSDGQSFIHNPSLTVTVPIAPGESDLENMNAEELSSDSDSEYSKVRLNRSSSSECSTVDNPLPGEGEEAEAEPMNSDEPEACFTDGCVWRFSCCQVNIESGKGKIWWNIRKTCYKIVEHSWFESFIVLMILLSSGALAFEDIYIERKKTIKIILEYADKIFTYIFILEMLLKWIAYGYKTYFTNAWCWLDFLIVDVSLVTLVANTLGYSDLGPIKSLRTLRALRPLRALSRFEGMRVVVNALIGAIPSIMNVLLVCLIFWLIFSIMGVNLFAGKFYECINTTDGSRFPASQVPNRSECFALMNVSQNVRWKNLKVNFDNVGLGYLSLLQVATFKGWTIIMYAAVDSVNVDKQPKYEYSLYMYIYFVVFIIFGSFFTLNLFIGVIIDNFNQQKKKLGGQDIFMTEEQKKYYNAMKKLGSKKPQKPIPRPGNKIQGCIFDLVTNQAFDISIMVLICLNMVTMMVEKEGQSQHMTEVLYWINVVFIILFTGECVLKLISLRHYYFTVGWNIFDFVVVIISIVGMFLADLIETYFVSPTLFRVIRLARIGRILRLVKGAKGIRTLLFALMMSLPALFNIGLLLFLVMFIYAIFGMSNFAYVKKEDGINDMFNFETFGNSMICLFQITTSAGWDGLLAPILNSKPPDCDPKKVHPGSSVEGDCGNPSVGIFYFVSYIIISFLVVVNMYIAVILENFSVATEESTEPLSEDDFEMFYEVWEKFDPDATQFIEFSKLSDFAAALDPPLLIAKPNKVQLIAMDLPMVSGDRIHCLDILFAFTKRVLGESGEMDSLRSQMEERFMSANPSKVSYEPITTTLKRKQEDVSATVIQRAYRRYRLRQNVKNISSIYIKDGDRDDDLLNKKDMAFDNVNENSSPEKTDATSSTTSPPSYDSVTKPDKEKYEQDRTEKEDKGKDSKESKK

Structure (SMILES) | IC50 [nM]
CN1CCn2c(C(=O)C(F)(F)F)ccc2C12CCN(C(=O)c1ccc(OCC(C)(C)C)cc1)CC2 [Compound 494] | ≤ 2000
CN1CCn2c(Cl)ccc2C12CCN(C(=O)c1ccc(OCC(C)(C)C)cc1)CC2 [Compound 32] | ≤ 2000
CNS(=O)(=O)c1ccc(C(=O)N2CCC3(CC2)c2ccc(C(F)(F)F)n2CCN3C)cc1C [Compound 7] | ≤ 2000
Cc1cc(S(=O)(=O)C(C)C)ccc1C(=O)N1CCC2(CC1)c1ccc(C(=O)C(C)(C)C)n1CCN2C [Compound 399] | 2000 to 5000
CC(C)C(O)c1ccc(C(=O)N2CCC3(CC2)c2c(F)cc(C(F)(F)F)n2CCN3C)cc1 (stereo not shown) [Compound 395] | ≤ 2000
CN1CCn2c(ccc2C(F)(F)C(F)(F)F)C12CCN(C(=O)c1ccc(S(=O)(=O)NC3CC3)cc1)CC2 [Compound 289] | ≤ 2000
Cc1cc(C(=O)N2CC[C@]3(c4ccc(C(F)(F)F)n4CCN3C)[C@H](F)C2)ccc1C(C)(C)O [Compound 350] | ≤ 2000
COc1ccc(C(=O)N2CCC3(CC2)c2ccc(C(=O)C4(C)CC4)n2CCN3C)nc1C [Compound 448] | ≤ 2000
CCOC(=O)CN1CCn2c(C(F)(F)F)ccc2C12CCN(C(=O)c1ccc(OC(C)C)c(C)c1)CC2 [Compound 426] | ≤ 2000
O=C(c1ccc(Oc2ccccc2)cc1)N1CCC2(CC1)NCCn1c(C(F)(F)F)ccc12 [Compound 374] | > 5000
COc1ccc(C(=O)N2CCC3(CC2)c2ccc(C(=O)C(F)(F)F)n2C[C@H](C)N3C)cc1C(F)(F)F [Compound 726] | ≤ 2000
Cc1nc(C(=O)N2CCC3(CC2)c2ccc(C(=O)C(F)(F)F)n2CCN3C)ccc1OC(C)C [Compound 468] | ≤ 2000
Cc1cc(C(=O)N2CCC3(CC2)c2ccc(C(F)(F)F)n2CCN3C)ccc1C(C)(C)O [Compound 98] | ≤ 2000
CN1CCn2c(C(F)(F)F)ccc2C12CCN(C(=O)c1cccnc1N1CCC(F)C1)CC2 (stereo not shown) [Compound 518] | ≤ 2000
COc1cc(C(=O)N2CCC3(CC2)NCCn2c(C(F)(F)F)ccc23)ccc1C(C)(C)O [Compound 83] | ≤ 2000
Cc1cc(C(=O)N2CC[C@]3(c4ccc(C(F)(F)F)n4CCN3C)[C@H](F)C2)ccc1OC(C)C [Compound 475] | ≤ 2000
Cc1cc(C(=O)N2CCC3(CC2)c2ccc(C(=O)C(F)(F)F)n2CCN3C)ccc1C1(O)CCCC1 [Compound 487] | ≤ 2000
Cc1cc(C(=O)N2CCC3(CC2)c2ccc(C(=O)C(F)(F)F)n2CCN3C)ccc1OC(C)C [Compound 117] | ≤ 2000
CNS(=O)(=O)c1ccc(C(=O)N2CCC3(CC2)c2ccc(C(F)(F)C(F)(F)F)n2CCN3C)cc1 [Compound 381] | ≤ 2000
CN1CCn2c(C(F)(F)F)ccc2C12CCN(C(=O)c1cccc(Cl)c1)CC2 [Compound 166] | > 5000
CC(C)Oc1ccc(C(=O)N2CCC3(CC2)NC(C)(C)Cn2c(C(F)(F)F)ccc23)c(F)c1 [Compound 721] | ≤ 2000
COc1cc(C(=O)N2CCC3(CC2)c2ccc(Cl)n2CCN3C)ccc1OC(C)C [Compound 234] | > 5000
COCCN1CCn2c(C(F)(F)F)ccc2C12CCN(C(=O)c1ccc(C(C)(C)O)cc1)CC2 [Compound 701] | ≤ 2000
CN1CCn2c(C(=O)C3(C)CC3)ccc2C12CCN(C(=O)c1ccc(C(C)(C)O)cc1)CC2 [Compound 267] | 2000 to 5000
CC(=O)c1ccc2n1CCN(C)C21CCN(C(=O)c2ccc(N3CCCCC3)cc2)CC1 [Compound 504] | > 5000
Cc1cc(C(=O)N2CCC3(CC2)c2ccc(C(=O)C(C)(C)C)n2CCN3C)ccc1S(C)(=O)=O [Compound 682] | > 5000
COc1cc(C(=O)N2CCC3(CC2)c2ccc(Cl)n2CCN3C)ccc1OCC(C)C [Compound 82] | ≤ 2000
COc1cc(C(=O)N2CC[C@@]3(C[C@@H]2C)c2ccc(C(F)(F)F)n2CCN3C)ccc1OC(C)C [Compound 614] | > 5000

Structure (SMILES) | IC50 [nM]
CC(C)CCOc1ccc(C(=O)N2CCC3(CC2)c2ccc(C(=O)C(F)(F)F)n2CCN3C)nc1 [Compound 438] | ≤ 2000
CC(=O)c1ccc2n1CCN(C)C21CCN(C(=O)c2ccc(-c3ccccc3)cc2)CC1 [Compound 163] | > 5000
Cc1cc(C(=O)N2CCC3(CC2)NC(C)(C)Cn2cc(F)c(F)c23)ccc1OC(C)C [Compound 256] | > 5000
CN1CCn2c(C(F)(F)F)cc(F)c2C12CCN(C(=O)c1ccc(CC(C)(C)O)cc1)CC2 [Compound 313] | ≤ 2000
CC(C)Oc1ccc(C(=O)N2CCC3(CC2)c2ccc(Cl)n2CCN3C)cc1F [Compound 25] | > 5000
COc1ccc(C(=O)N2CCC3(CC2)c2ccc(C(=O)C(C)(C)C)n2CCN3C)cc1C [Compound 314] | ≤ 2000
COc1ccc(C(=O)N2CCC3(CC2)c2c(Cl)cc(C(F)(F)F)n2CCN3C)cc1C [Compound 713] | 2000 to 5000
Cc1cc(C)n2ncc(C(=O)N3CCC4(CC3)c3ccc(C(F)(F)F)n3CCN4C)c2n1 [Compound 673] | ≤ 2000
CCCCOc1ccc(C(=O)N2CCC3(CC2)c2ccc(C(=O)C(F)(F)F)n2CCN3C)cc1OC [Compound 146] | ≤ 2000
COc1cc(C(=O)N2CCC3(CC2)c2c(F)cc(C(F)(F)F)n2CCN3C)ccc1OCC(C)C [Compound 188] | ≤ 2000
CC(C)Oc1ccc(C(=O)N2CCC3(CC2)c2ccc(C(F)(F)F)n2CCN3C)cc1F [Compound 568] | ≤ 2000
CC(=O)c1ccc2n1CC(C)(C)NC21CCN(C(=O)c2ccc(OC(C)C)c(C)c2)CC1 [Compound 418] | ≤ 2000
CCOc1cc(C(=O)N2CCC3(CC2)c2ccc(C(F)(F)F)n2CCN3C)ccc1CO [Compound 579] | ≤ 2000
Cc1cc(C(=O)N2CCC3(CC2)c2ccc(Cl)n2CCN3C)ccc1-c1ccccc1 [Compound 424] | ≤ 2000
Cc1cc(C(=O)N2CCC3(CC2)c2ccc(C(=O)C(F)(F)F)n2CCN3C)ncc1OC(C)C [Compound 573] | ≤ 2000
CC(C)CCOc1ccc(C(=O)N2CCC3(CC2)NC(C)(C)Cn2c(C(=O)C(F)(F)F)ccc23)cc1 [Compound 409] | ≤ 2000
Cc1cc(C(=O)N2CCC3(CC2)c2c(F)cc(C(F)(F)F)n2CCN3C)ccc1OCCCO [Compound 249] | ≤ 2000
CN1CCn2c(C(=O)C3CC3)ccc2C12CCN(C(=O)c1ccc(C(C)(C)O)c(F)c1)CC2 [Compound 368] | ≤ 2000
COc1cc(C(=O)N2CCC3(CC2)NCCn2c(C(F)(F)F)ccc23)ccc1O [Compound 594] | > 5000
CC(=O)c1ccc2n1CCN(C)C21CCN(C(=O)c2ccc(OC(C)C)c(F)c2)CC1 [Compound 734] | > 5000
COc1cc(C(=O)N2CCC3(CC2)NC(C)(C)Cn2c(C(F)(F)F)ccc23)ccc1OC(C)C [Compound 551] | ≤ 2000
Cc1cc(C(=O)N2CC[C@@]3(c4ccc(C(F)(F)F)n4CCN3C)[C@H](F)C2)ccc1C(C)(C)O [Compound 630] | ≤ 2000
Cc1cc(C(=O)N2CCC3(CC2)c2ccc(C(F)(F)F)n2CCN3CC(=O)N(C)C)ccc1OC(C)C [Compound 723] | ≤ 2000
CCCOc1ccc(C(=O)N2CCC3(CC2)c2ccc(Cl)n2CCN3C)cc1 [Compound 590] | 2000 to 5000
CC[C@@H](C)Oc1ccc(C(=O)N2CCC3(CC2)c2ccc(C(F)(F)F)n2CCN3C)cc1OC [Compound 727] | ≤ 2000
COc1cc(C(=O)N2CCC3(CC2)c2ccc(CC(F)(F)F)n2CCN3C)ccc1OC(C)C [Compound 547] | > 5000
CC(C)S(=O)(=O)c1ccc(C(=O)N2CCC3(CC2)c2ccc(C(=O)C(C)(C)C)n2CCN3C)cc1 [Compound 176] | 2000 to 5000
